Assay results reported in patent US10548996B2, “Hydrogels for localized radiotherapy” (Washington University, priority 2014, dated 2020).

Assays:
[1] = Release of radioactivity from implanted solid chitosan hydrogels to adjacent normal tissues (radiographic imaging); type: in vivo; details: FIG. 4; rats, non-encapsulated, loaded in solid chitosan hydrogel implant; Day-1 to Day-7
[2] = In vitro release of fluorescence from chitosan hydrogels to the surrounding media; type: physicochemical; details: FIG. 5, all time points tested, up to two weeks
Description: To determine the release of large molecules from the hydrogels, the following experiment was conducted. The chitosan hydrogels with the best injectability properties were analyzed naïve or loaded with the alginate microparticles with the best encapsulation efficiency. The in vitro release studies were developed by using a large-size molecule such as albumin and a small-size molecule as cresyl violet to detect the efficacy in both encapsulation settings. Albumin is not detectable by fluorescence reader or spectrophotometer, thus FITC was labeled to albumin. […] Different time points were measured to analyze short and long-term release. At 0, 1, 2, 4, 8, and 24 h, for short-term release, and 0, 0.33, 1, 2, 3, 7, 14, 21, 28, 42 days for long-term release, samples from the PBS solution that surrounded the chitosan hydrogels were analyzed by fluorescence reader (Alb-FITC and FITC) at 485/516 nm or spectrophotometer (CV) at 595 nm. The % release was calculated as follows: % Release=(Chitosan hydrogel−Blank)/(Control−Blank)*100
To assess these concepts, the release of fluorescence to the surrounding media was tested from chitosan hydrogels containing free-fluorescein, fluorescien-conjugated to bovine serum albumin (FITC-Alb), and FITC-Alb encapsulated in calcium-alginate microparticles.

Row | Compound | radioactive leakage from the implant to adjacent normal tissues [1] | relative release of fluorescence to the surrounding media [2]
1 | CC(C)CCCC(C)C1CCC2C3CC(C[131I])C4=C(CCC(O)C4)C3CCC12C (centres unmarked) [^131I-nor-cholesterol] | radioactive leakage from the implant starting at Day-1 that becomes more evident at Day-7 | –
2 | FITC-Alb: fluorescien-conjugated to bovine serum albumin, in chitosan hydrogel | – | less than half of the relative release of fluorescein
